For four compounds, IC50 results are on record in patent US20250353855A1, “HETEROCYCLIC AND HETEROARYL COMPOUNDS FOR TREATING HUNTINGTON'S DISEASE” (PTC THERAPEUTICS, INC., priority 2022, published 2025).

Structures are written as SMILES. Where two headings read alike, the source gives them in different places.

The test system of the experiment is Endogenous Huntingtin Protein. In words: Endogenous Huntingtin Protein Assay (ELISA-based MSD electrochemiluminescence). The experiment is classed as cell-based. The following applies: MSD plates coated with MW1 (expanded polyglutamine) or MAB2166 capture antibody, lysates. The method in brief: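 Electrochemiluminescence sandwich ELISA for endogenous huntingtin: capture with MW1 (expanded polyglutamine) or MAB2166 antibody at 1 μg/mL, samples incubated overnight at 4° C. Detection with rabbit monoclonal #5656S then goat anti-rabbit SULFO-TAG antibody (each 0.25 μg/mL, 1 h room temperature), read on MSD imager.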

Take `Cc1nc2cc(O)c(-c3cc4c(nn3)N([C@@H]3CCNC(C)(C)[C@@H]3F)CC4)cc2s1` (single isomer, unassigned) [Cpd 63, 6-{7-[(3R,4R)-3-fluoro-2,2-dimethylpiperidin-4-yl]-6,7-dihydro-5H-pyrrolo[2,3-c]pyridazin-3-yl}-2-methyl-1,3-benzothiazol-5-ol or 6-{7-[(3S,4S)-3-fluoro-2,2-dimethylpiperidin-4-yl]-6,7-dihydro-5H-pyrrolo[2,3-c]pyridazin-3-yl}-2-methyl-1,3-benzothiazol-5-ol]: the IC50 (read-out: IC50) was < 100 nM. For the compound `Cc1nc2cc(O)c(-c3cc4c(nn3)N([C@H]3CC(C)(C)NC(C)(C)[C@H]3F)CC4)cc2s1` [Cpd 52, 6-{7-[(3S,4S)-3-fluoro-2,2,6,6-tetramethylpiperidin-4-yl]-6,7-dihydro-5H-pyrrolo[2,3-c]pyridazin-3-yl}-2-methyl-1,3-benzothiazol-5-ol], the IC50 (read-out: IC50) is < 100 nM. With `Cc1nc2cc(O)c(-c3cc4ccn([C@@H]5CCNC(C)(C)[C@@H]5F)c4nn3)cc2o1` [Cpd 20, 6-{7-[(3R,4R)-3-fluoro-2,2-dimethylpiperidin-4-yl]-7H-pyrrolo[2,3-c]pyridazin-3-yl}-2-methyl-1,3-benzoxazol-5-ol], the IC50 was < 100 nM.

Take `CC1(C)C[C@H](N2CCc3cc(-c4cc5c(=O)ccoc5cc4O)nnc32)[C@H](F)C(C)(C)N1` [Cpd 69, 6-{7-[(3S,4S)-3-fluoro-2,2,6,6-tetramethylpiperidin-4-yl]-6,7-dihydro-5H-pyrrolo[2,3-c]pyridazin-3-yl}-7-hydroxy-4H-1-benzopyran-4-one]: the IC50 (read-out: IC50) was < 100 nM.
